Measured values: US8288374B2, “Medicinal composition containing benzo[a]phenoxazine compound as the active ingredient for prevention or treatment of protozoal disease” (Hoshi University, priority 2008, dated 2012)
In brackets after ≈: the same amount, converted by molar mass. Where two headings read alike, the source gives them in different places.

Experiments:
Format in all cases: cell-based
[1] = test system: Leishmania donovani (MHOM/ET/67/L82 strain); assay: Leishmania protozoa growth inhibition screening test
Procedure: In the present experiment, Leishmania donovani (MHOM/ET/67/L82 strain) was used. Protozoa was subcultured in Syrian Golden hamster, from which an amastigote was obtained. In the experiment, SM medium supplemented with 10% heat-treated bovine fetal serum was used, which was adjusted to pH 5.4, and cultured in an atmosphere of 5% CO2 concentration, at 37° C.
The compounds of the present invention to be used in the present test and the positive control drug (miltefosine) were dissolved in DMSO to make a test solution of a predetermined concentration.
After adding a medium containing a predetermined number of protozoa to wells of a 96-well culture'plate and pre-treating, concentration of the amastigote was measured with CASY cell analysis system (Scharfe, Germany). Then, test solution containing a drug of a predetermined concentration or a drug-free DMSO was added. Test solutions were taken by duplicates.
After culturing the culture plate for 72 hours in an incubator, growth inhibition activity was tested. Test was conducted as follows. 10 μL of Alamar Blue aqueous solution was added to each well, and the resultant was further cultured for 2 hours. Next, the culture plate was placed on a fluorescent micro-plate reader (Spectramax Gemeni XS; US Molecular Device), radiated at an excited wavelength of 536 nm. Fluorescent intensity was measured at 588 nm, and infection rate of leishmania protozoa of the test solution added group and control was calculated.
(§1) Growth inhibition rate (%)={1−(b−a)/(c−a)}×100 • a: early infection rate • b: infection rate when test solution was added • c: infection rate of the control

[2] = test system: Trypanosoma cruzi (Tulahuen C2C4 strain); assay: American trypanosome protozoa growth inhibition screening test
Procedure: In the present experiment, amastigote and trypomastigote infected with rat L6 cells of protozoa of Trypanosoma cruzi (Tulahuen C2C4 starin) were used. As medium used in the test, RPMI 1640 medium containing L6 cells was supplemented so that L-glutamine (200 mM) become 1%, fetal bovine serum becomes 10%, which was cultured under CO2 concentration 5%, at 37° C.
The compounds of the present invention to be used in the present test and the positive control drug (benznidazole) were dissolved in DMSO to make a test solution of a predetermined concentration.
A medium containing 5×10^3 protozoa was added to wells of a 96-well culture plate, and pre-cultured for 48 hours. After replacing the medium, test solution containing drug of a predetermined concentration or a drug-free DMSO was added. Test solutions were taken by duplicates.
After culturing the culture plate in an incubator for 96 hours, growth inhibition activity was tested. Test was conducted as follows. 50 μL of CPRG/Nonidet was added to each well, and allowed to rest for 2 to 6 hours. Next, the culture plate was placed on a fluorescent micro-plate reader. The absorbance was measured at 540 nm, and the trypanosome infection rate of the test solution added group and control group were calculated.
as §1

Rat L6 cells = assay: Growth inhibition test of rat L6 cells
Procedure: Rat derived-L6 cells (rat skeletal myoblast cell) were used. A medium, RPMI1640 medium was supplemented so that L-glutamin (200 mM) is 1%, and fetal bovine serum 10%, and the medium was cultured under CO2 concentration 5%, at 37° C.
The compounds of the present invention and the control drugs to be used in the test were dissolved in DMSO, to make a test solution of a predetermined concentration.
Pre-culture was conducted and medium containing cells which have entered the logarithmic growth phase was taken to wells of a 96-well culture plate. Then, a test solution containing drug of a predetermined concentration or a drug-free DMSO was added. Test solutions were taken by duplicates.
Culture plate was cultured for 72 hours in an incubator, to test the growth inhibition activity. Test was conducted as follows. 10 μL of Alamar Blue aqueous solution was added to each well, and the resultant was further cultured for 2 hours. Next, the culture plate was placed on a fluorescent micro-plate reader (Spectramax Gemeni XS; US Molecular Device), radiated at an excited wavelength of 536 nm. Fluorescent intensity was measured at 588 nm, and residual rate of L6 cells of the test solution added group, and that of the control was calculated.
Growth inhibition rate (%)={(C−A)/(B−A)}×100 • A: Primary cell count • B: cell count of control, 3 days after • C: cell count of wells added with a sample, 3 days after 4. Determination of Drug Efficacy Against Chloroquine Resistant-Plasmodium

Plasmodium falciparum K1 = assay: Chloroquine resistant-Plasmodium falciparum growth inhibition screening test; settings: for Selective toxicity: EC50 against rat L6 cells / EC50 against P. falciparum K1; for EC50: Plasmodium falciparum, Table 2, unit inferred, chloroquine-resistant K1 strain, read-out: P. falciparum K1
Procedure: In the present experiment, protozoa of plasmodium falsiparum K1 strain was used. RPMI-1640 medium sterilized with a filter to which human serum was added to be 5%, was used in the experiment. Malarial parasites were cultured under 3% O2 concentration, 4% CO2 concentration, 93% N2 concentration, and at a temperature of 37° C.
The compounds of the present invention to be used in the present test and the positive control drug (chloroquine) were dissolved in DMSO to make a test solution of a predetermined concentration. Cultured malaria parasite infected-erythrocytes were collected by centrifugation, and diluted with non-infected erythrocyte so that the early infection rate was 0.15%. Hematocrit level at that time was 2.5%.
200 μL of malaria infected solution was added to wells of a 96-well culture plate, and adjusted by adding a test solution containing drug of a predetermined concentration or a drug-free DMSO. Test solutions were taken by duplicates.
[…] […] Radiation intensity was measured with a beta plate liquid scintillation counter (Wallac), and malarial parasite infection rates of the test solution added group and the control group were calculated.
Growth inhibition rate (%)={1−(b−a)/(c−a)}×100 • a: early infection rate • b: infection rate when test solution was added • c: infection rate of the control 3. Growth Inhibition Test of Rat L6 Cells
Antimalarial activity of a sample was estimated from EC50 values of the sample against chloroquine resistant-Plasmodium falciparum and rat L6 cells. […] It means that the larger the value of the selection toxity, the less the risk of the side effect is. Chemotherapy index=(EC50 value of a sample against rat L6 cells)/(EC50 value of a sample against chloroquine resistant-Plasmodium falsiparum)

[3] = Table 6, unit inferred, read-out: Leishmania donovani
[4] = Table 6, unit inferred, read-out: Trypanosoma cruzi
[5] = Table 2, unit inferred, 72 hours, read-out: Cytoxicity L6

Row | Compound | EC50 ([1]; Leishmania donovani, Table 5, amastigotes, 72 hours, Alamar Blue, read-out: 50% Growth inhibition concentration Leishmania donovani) | EC50 ([2]; Trypanosoma cruzi, Table 5, in rat L6 cells, 96 hours, CPRG/Nonidet, read-out: 50% Growth inhibition concentration Trypanosoma cruzi) | EC50 (Rat L6 cells; Table 1, 72 hours, Alamar Blue, read-out: 50% Growth inhibition concentration Cytoxicity L6) | Selective toxicity (Plasmodium falciparum K1) | EC50 [1, 3] | EC50 [2, 4] | EC50 (Rat L6 cells; [5]) | EC50 (Plasmodium falciparum K1)
1 | CCN(CC)c1ccc2nc3c4ccccc4c(=Nc4ccc5ccccc5n4)cc-3oc2c1 [Compound 1H, N,N-Diethyl-5-(quinolin-2-ylimino)-5H-benzo[a]phenoxazin-9-amine] | 1.25 µg/mL (≈ 2.81 µM) | 3.31 µg/mL (≈ 7.45 µM) | 30.1 µg/mL (≈ 67.8 µM) | 2513 | – | – | – | –
2 | CCN(CCNS(C)(=O)=O)c1cc(C)c2nc3c4ccccc4c(=Nc4ccccn4)cc-3oc2c1 [Compound 1S, N-Ethyl-N-(2-methansulfonamidylethyl)-11-methyl-5-(pyridine-2-ylimino)-5H-benzo[a]phenoxazin-9-amine] | – | – | – | 43 | 2.09 µg/mL (≈ 4.17 µM) | 0.376 µg/mL (≈ 0.75 µM) | 0.307 µg/mL (≈ 0.612 µM) | 0.007 µg/mL (≈ 0.014 µM)
3 | CCN(CCNS(C)(=O)=O)c1cc(C)c2nc3c4ccccc4c(=Nc4ccncc4)cc-3oc2c1 [Compound 1R, N-Ethyl-N-(2-methansulfonamidylethyl)-11-methyl-5-(pyridine-4-ylimino)-5H-benzo[a]phenoxazin-9-amine] | – | – | – | 885 | 3.92 µg/mL (≈ 7.81 µM) | 2.01 µg/mL (≈ 4.01 µM) | 7.97 µg/mL (≈ 15.9 µM) | 0.009 µg/mL (≈ 0.0179 µM)
